Here are results for one compound from BindingDB's records for PubMed 7969084 (Merck Sharp and Dohme Research Laboratories, 1994).

Molecules are shown by their SMILES.

This assay addresses T1, Cholecystokinin (Sus scrofa, UniProt P01356).
T1 sequence (P01356 whole entry): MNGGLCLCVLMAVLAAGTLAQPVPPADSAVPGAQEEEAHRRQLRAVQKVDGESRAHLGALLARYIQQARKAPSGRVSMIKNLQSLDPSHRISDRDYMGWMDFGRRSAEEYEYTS

Compound `Cc1cccc(NC(=O)N[C@@H]2N=C(N3CCCCCC3)c3ccccc3N(C)C2=O)c1` [L-738416] gave a Ki of 1.2 nM.
